This note sets out measurements from patent US20150191469A1, “COMPOUNDS AND METHODS FOR TREATING HIV” (priority 2012, published 2015).

The subject of the assay is HIV. Briefly: MT4 assay: antiviral HIV activity (cell protection, cell titer glo readout at 96 hours). Type of assay: cell-based. The conditions noted are these: Human immunodeficiency virus 1, MT4, 96 h, MT4 cells, cell titer glo readout at 96 hours, 10 point dose response; read-out: HIV MT4 Assay IC50. How it is done:
Antiviral HIV activity and cytotoxicity values for compounds of the invention from Table 1 were measured in parallel in the HTLV-1 transformed cell line MT-4 based on the method previously described (Hazen et al., 2007, In vitro antiviral activity of the novel, tyrosyl-based human immunodeficiency virus (HIV) type 1 protease inhibitor brecanavir (GW640385) in combination with other antiretrovirals and against a panel of protease inhibitor-resistant HIV (Hazen et al., “In vitro antiviral activity of the novel, tyrosyl-based human immunodeficiency virus (HIV) type 1 protease inhibitor brecanavir (GW640385) in combination with other antiretrovirals and against a panel of protease inhibitor-resistant HIV”, Antimicrob. Agents Chemother. 2007, 51: 3147-3154; and Pauwels et al., “Sensitive and rapid assay on MT-4 cells for the detection of antiviral compounds against the AIDS virus”, J. of Virological Methods 1987, 16: 171-185).
Luciferase activity was measured 96 hours later by adding a cell titer glo (Promega, Madison, Wis.). Percent inhibition of cell protection data was plotted relative to no compound control. Under the same condition, cytotoxicity of the compounds was determined using cell titer Glo™ (Promega, Madison, Wis.). IC50s were determined from a 10 point dose response curve using 3-4-fold serial dilution for each compound, which spans a concentration range >1000 fold.
These values are plotted against the molar compound concentrations using the standard four parameter logistic equation:
y=((Vmax*x̂n)/(K̂n+x̂n))+Y2
Y2=minimum y n=slope factor
Vmax=maximum y x=compound concentration [M]
(In ATP-based viability assays light output follows the ATP content of the culture.)
By IC50 is commonly meant the midpoint of a concentration-inhibition curve. As to `Cc1nc2c(cc(-c3ccnc(-c4ccc5c(cnn5C)c4)c3)n2C)c(-c2cc(F)c3c(c2C)NCCO3)c1[C@H](OC(C)(C)C)C(=O)O` (atropisomer, axis not shown) [Example 3, (2S)-2-(tert-butoxy)-2-[4-(8-fluoro-5-methyl-3,4-dihydro-2H-1,4-benzoxazin-6-yl)-1,6-dimethyl-2-[2-(1-methyl-1H-indazol-5-yl)pyridin-4-yl]-1H-pyrrolo[2,3-b]pyridin-5-yl]acetic acid], the IC50 is 1.9 nM. As to `Cc1nc2c(cc(-c3ccnc(-c4cnc5c(cnn5C)c4)c3)n2C)c(-c2ccc3c(c2C)CCCO3)c1[C@H](OC(C)(C)C)C(=O)O` (atropisomer, axis not shown) [Example 4, (2S)-2-(tert-butoxy)-2-[1,6-dimethyl-2-(2-{1-methyl-1H-pyrazolo[3,4-b]pyridin-5-yl}pyridin-4-yl)-4-(5-methyl-3,4-dihydro-2H-1-benzopyran-6-yl)-1H-pyrrolo[2,3-b]pyridin-5-yl]acetic acid], the IC50 is 1.6 nM. Consider `Cc1nc2c(cc(-c3ccnc(-c4cccnc4)c3)n2C)c(-c2cc(F)c3c(c2C)CCCO3)c1[C@H](OC(C)(C)C)C(=O)O` (atropisomer, axis not shown) [Example 6, (2S)-2-(tert-butoxy)-2-[4-(8-fluoro-5-methyl-3,4-dihydro-2H-1-benzopyran-6-yl)-1,6-dimethyl-2-[2-(pyridin-3-yl)pyridin-4-yl]-1H-pyrrolo[2,3-b]pyridin-5-yl]acetic acid], for which the IC50 worked out at 14.8 nM. The value for `Cc1nc2c(cc(-c3ccnc(-c4ccc5c(c4)CCN5C)c3)n2C)c(-c2cc(F)c3c(c2C)CCCO3)c1[C@H](OC(C)(C)C)C(=O)O` (atropisomer, axis not shown) [Example 8, (2S)-2-(tert-butoxy)-2-[4-(8-fluoro-5-methyl-3,4-dihydro-2H-1-benzopyran-6-yl)-1,6-dimethyl-2-[2-(1-methyl-2,3-dihydro-1H-indol-5-yl)pyridin-4-yl]-1H-pyrrolo[2,3-b]pyridin-5-yl]acetic acid] was 5.6 nM; that for `Cc1nc2c(cc(-c3ccnc(-c4cnn(C5CCOCC5)c4)c3)n2C)c(-c2cc(F)c3c(c2C)CCCO3)c1[C@H](OC(C)(C)C)C(=O)O` (atropisomer, axis not shown) [Example 9, (2S)-2-(tert-butoxy)-2-[4-(8-fluoro-5-methyl-3,4-dihydro-2H-1-benzopyran-6-yl)-1,6-dimethyl-2-{2-[1-(oxan-4-yl)-1H-pyrazol-4-yl]pyridin-4-yl}-1H-pyrrolo[2,3-b]pyridin-5-yl]acetic acid] was 16.2 nM. Regarding `Cc1nc2c(cc(-c3ccnc(N4CCN(C)CC4)c3)n2C)c(-c2cc(F)c3c(c2C)CCCO3)c1[C@H](OC(C)(C)C)C(=O)O` (atropisomer, axis not shown) [Example 10, (2S)-2-(tert-butoxy)-2-[4-(8-fluoro-5-methyl-3,4-dihydro-2H-1-benzopyran-6-yl)-1,6-dimethyl-2-[2-(4-methylpiperazin-1-yl)pyridin-4-yl]-1H-pyrrolo[2,3-b]pyridin-5-yl]acetic acid], the IC50 was determined as 30.3 nM.

Take `Cc1nc2c(cc(C(=O)N3CCN(c4ccc5c(cnn5C)c4)CC3)n2C)c(-c2cc(F)c3c(c2C)CCCO3)c1[C@H](OC(C)(C)C)C(=O)O` (atropisomer, axis not shown) [Example 11, (2S)-2-(tert-butoxy)-2-[4-(8-fluoro-5-methyl-3,4-dihydro-2H-1-benzopyran-6-yl)-1,6-dimethyl-2-{[4-(1-methyl-1H-indazol-5-yl)piperazin-1-yl]carbonyl}-1H-pyrrolo[2,3-b]pyridin-5-yl]acetic acid]: the IC50 was 14.8 nM. The value for `Cc1nc2c(cc(-c3ccc(-c4ccc5c(cnn5C)c4)nc3)n2C)c(-c2cc(F)c3c(c2C)CCCO3)c1[C@H](OC(C)(C)C)C(=O)O` (atropisomer, axis not shown) [Example 18, (2S)-2-(tert-butoxy)-2-[4-(8-fluoro-5-methyl-3,4-dihydro-2H-1-benzopyran-6-yl)-1,6-dimethyl-2-[6-(1-methyl-1H-indazol-5-yl)pyridin-3-yl]-1H-pyrrolo[2,3-b]pyridin-5-yl]acetic acid] was 26.3 nM; that for `Cc1nc2c(cc(-c3ccnc(N4CCN(C5COC5)CC4)c3)n2C)c(-c2cc(F)c3c(c2C)CCCO3)c1[C@H](OC(C)(C)C)C(=O)O` (atropisomer, axis not shown) [Example 25, (2S)-2-(tert-butoxy)-2-[4-(8-fluoro-5-methyl-3,4-dihydro-2H-1-benzopyran-6-yl)-1,6-dimethyl-2-{2-[4-(oxetan-3-yl)piperazin-1-yl]pyridin-4-yl}-1H-pyrrolo[2,3-b]pyridin-5-yl]acetic acid] was 10.6 nM; that for `Cc1nc2c(cc(-c3ccnc(-c4ccnc(N5CCN(C)CC5)c4)c3)n2C)c(-c2cc(F)c3c(c2C)CCCO3)c1[C@H](OC(C)(C)C)C(=O)O` (atropisomer, axis not shown) [Example 30] was 4.1 nM. In the case of `Cc1ccc(-c2cc(-c3cc4c(-c5cc(F)c6c(c5C)CCCO6)c([C@H](OC(C)(C)C)C(=O)O)c(C)nc4n3C)ccn2)cc1` (atropisomer, axis not shown) [Example 31] it was 11 nM. As for `Cc1nc2c(cc(-c3ccnc(C4=CCCCC4)c3)n2C)c(-c2cc(F)c3c(c2C)CCCO3)c1[C@H](OC(C)(C)C)C(=O)O` (atropisomer, axis not shown) [Example 32], the IC50 came out at 34.5 nM.

In the case of `Cc1nc2c(cc(-c3ccnc(-c4cnc(N(C)C)nc4)c3)n2C)c(-c2cc(F)c3c(c2C)CCCO3)c1[C@H](OC(C)(C)C)C(=O)O` (atropisomer, axis not shown) [Example 33], the IC50 was determined as 7.2 nM. For the compound `Cc1nc2c(cc(-c3ccnc(-c4ccc5nccn5c4)c3)n2C)c(-c2cc(F)c3c(c2C)CCCO3)c1[C@H](OC(C)(C)C)C(=O)O` (atropisomer, axis not shown) [Example 34], the half-maximal inhibitory concentration (IC50) came out at 4.2 nM.

As to `Cc1nc2c(cc(-c3ccnc(-c4ccc5nnn(C)c5c4)c3)n2C)c(-c2cc(F)c3c(c2C)CCCO3)c1[C@H](OC(C)(C)C)C(=O)O` (atropisomer, axis not shown) [Example 35], the IC50 turned out to be 10.9 nM. As for `Cc1nc2c(cc(-c3ccnc(-c4cnc(O)nc4)c3)n2C)c(-c2cc(F)c3c(c2C)CCCO3)c1[C@H](OC(C)(C)C)C(=O)O` (atropisomer, axis not shown) [Example 36], the IC50 came to 8410 nM. With `Cc1nc2c(cc(-c3ccnc(-c4ccc5c(c4)C(C)(C)CO5)c3)n2C)c(-c2cc(F)c3c(c2C)CCCO3)c1[C@H](OC(C)(C)C)C(=O)O` (atropisomer, axis not shown) [Example 37], the half-inhibitory concentration (IC50) was determined as 47.4 nM. For `Cc1nc2c(cc(-c3ccnc(C4=CCN(C)CC4)c3)n2C)c(-c2cc(F)c3c(c2C)CCCO3)c1[C@H](OC(C)(C)C)C(=O)O` (atropisomer, axis not shown) [Example 38], the IC50 is 17.9 nM. For `Cc1nc2c(cc(-c3ccnc(-c4ccc5ccccc5c4)c3)n2C)c(-c2cc(F)c3c(c2C)CCCO3)c1[C@H](OC(C)(C)C)C(=O)O` (atropisomer, axis not shown) [Example 39], the 50% inhibitory concentration (IC50) was 17.3 nM. As to `Cc1nc2c(cc(-c3ccnc(-c4ccc5ncccc5c4)c3)n2C)c(-c2cc(F)c3c(c2C)CCCO3)c1[C@H](OC(C)(C)C)C(=O)O` (atropisomer, axis not shown) [Example 40], the IC50 came out at 2.2 nM.
